Literature values in patent US20140004043A1, “CRYPTOPHANE DERIVATIVES AND METHODS OF USE THEREOF” (Georgetown Univeristy, priority 2010, published 2014).
Where two headings read alike, the source gives them in different places.

Conditions: cited from earlier work

Row | SMILES | binding constant with xenon Ka (293 K in 1,1,2,2-tetrachloroethane-d2 (TCE-d2)) | Ka, association constant for xenon binding (TCE-d2, 293 K) [M⁻¹] | Ka, association constant for xenon binding (TCE-d2, 278 K (footnote d)) | binding constant Ka of the xenon complex (organic solution, 278K) [M⁻¹]
1 | c1cc2c3cc1OCOc1ccc4c(c1)Cc1ccc5cc1Cc1ccc(cc1C4)OCOc1ccc(c(c1)Cc1ccc(cc1C2)OCO5)C3 (racemic) [Cryptophane 1, (±)-cryptophane-1,1,1] | ~10,000 M^−1 | 10000 | – | –
2 | COc1cc2c3cc1OCCOc1cc4c(cc1OC)Cc1cc5c(OC)cc1Cc1cc(c(OC)cc1C4)OCCOc1cc(c(cc1OC)C3)Cc1cc(OC)c(cc1C2)OCCO5 [A (or 222), (±)-cryptophane-A] | – | – | 3300^d | 3900
